Laboratory results: article PMC3109436 (Journal of medicinal chemistry, 2009)
Several values for one entry are separate records, joined by “and”; a condition that tells them apart may be missing. Equal entries are not always repeated. Entries after “also recorded” stand apart in the source; their conditions may differ. Where two headings read alike, the source gives them in different places. Marks after values point to notes of the source that are not given here. Each block holds one compound with its values, some of them ahead of it.

What was measured:
[1] = target: T1, human A2A adenosine receptor (hA2AAR) (Homo sapiens, UniProt P29274); conditions: cited from earlier work; for % inhibition of radioligand binding A2A: at 10 μM
[2] = target: T2, human A3AR (Homo sapiens, UniProt P0DMS8); conditions: at 10 μM, relative to 51 (= 100%); cited from earlier work
T2 sequence (P0DMS8 1-318): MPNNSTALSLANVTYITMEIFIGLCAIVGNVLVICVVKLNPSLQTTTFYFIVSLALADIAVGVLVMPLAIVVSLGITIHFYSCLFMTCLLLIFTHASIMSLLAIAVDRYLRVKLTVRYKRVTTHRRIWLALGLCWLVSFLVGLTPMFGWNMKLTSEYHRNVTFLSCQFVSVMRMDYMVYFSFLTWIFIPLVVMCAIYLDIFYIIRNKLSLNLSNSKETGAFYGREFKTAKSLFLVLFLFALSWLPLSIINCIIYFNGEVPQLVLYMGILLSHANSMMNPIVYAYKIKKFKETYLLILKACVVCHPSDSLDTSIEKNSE

[3] = tested on: A3AR; conditions: at 10 μM, percentage of full effect induced by 10 μM 51; cited from earlier work
[4] = target: T2, human A3AR; assay: Inhibition of forskolin-stimulated cAMP production; conditions: for agonist character at hA3AR in the adenylate cyclase (cAMP) assay: relative to full agonist 51
[5] = target: T3, rA3AR (Rattus norvegicus, UniProt P28647); assay: Radioligand binding at rat A3AR
T3 sequence (P28647 1-320): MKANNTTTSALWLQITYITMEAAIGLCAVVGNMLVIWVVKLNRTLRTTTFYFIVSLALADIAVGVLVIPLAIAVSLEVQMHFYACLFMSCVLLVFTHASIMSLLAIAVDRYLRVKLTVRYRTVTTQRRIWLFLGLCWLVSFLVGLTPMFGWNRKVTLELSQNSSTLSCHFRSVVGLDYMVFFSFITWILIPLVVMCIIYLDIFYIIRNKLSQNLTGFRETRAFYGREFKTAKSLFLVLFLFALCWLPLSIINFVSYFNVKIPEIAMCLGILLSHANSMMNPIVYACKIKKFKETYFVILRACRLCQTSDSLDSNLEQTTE

[6] = target: T4, human A1 adenosine receptor (hA1AR) (Homo sapiens, UniProt P30542); assay: Radioligand binding at human A1AR, membranes of CHO cells
T4 sequence (P30542 1-326): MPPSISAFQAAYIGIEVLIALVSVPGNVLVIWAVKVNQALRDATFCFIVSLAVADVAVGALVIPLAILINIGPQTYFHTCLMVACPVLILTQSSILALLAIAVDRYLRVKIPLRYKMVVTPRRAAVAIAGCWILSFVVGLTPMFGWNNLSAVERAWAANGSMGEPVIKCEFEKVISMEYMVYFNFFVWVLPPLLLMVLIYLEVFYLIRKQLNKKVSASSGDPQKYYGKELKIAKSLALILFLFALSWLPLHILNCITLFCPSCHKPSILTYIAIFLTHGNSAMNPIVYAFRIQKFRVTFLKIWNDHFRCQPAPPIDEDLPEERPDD

[7] = target: T1, human A2A adenosine receptor (hA2AAR); assay: Radioligand binding at human A2AAR, membranes of HEK293 cells
[8] = target: T5, human A3 adenosine receptor (hA3AR) (Homo sapiens, UniProt P0DMS8); assay: Radioligand binding at human A3AR, membranes of CHO cells
T5 sequence (P0DMS8 1-318): T2 sequence (P0DMS8 1-318)

T1 sequence (P29274 whole entry): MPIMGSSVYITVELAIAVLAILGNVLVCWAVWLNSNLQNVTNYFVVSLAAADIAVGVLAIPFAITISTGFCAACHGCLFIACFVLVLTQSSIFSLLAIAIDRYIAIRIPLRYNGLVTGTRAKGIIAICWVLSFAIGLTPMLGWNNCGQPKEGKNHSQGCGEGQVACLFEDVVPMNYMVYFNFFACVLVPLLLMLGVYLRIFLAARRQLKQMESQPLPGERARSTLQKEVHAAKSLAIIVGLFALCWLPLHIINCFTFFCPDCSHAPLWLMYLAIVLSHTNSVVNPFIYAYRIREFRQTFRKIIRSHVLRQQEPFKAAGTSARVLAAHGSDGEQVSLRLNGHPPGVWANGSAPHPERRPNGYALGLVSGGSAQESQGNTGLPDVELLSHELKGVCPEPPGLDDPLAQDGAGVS

Compound: CNC(=O)[C@@]12C[C@@H]1[C@@H](n1cnc3c(NCc4cccc(I)c4)nc(Cl)nc31)[C@H](O)[C@@H]2O [Compound 1b, reference compound]
Ki ([1]; read-out: affinity (Ki) A2A, HEK293 cells expressing hA2AAR): 784 ± 97 nM
% efficacy, A3 (inhibition of forskolin-stimulated cAMP production) [2]: 100 ^c %

Compound: O[C@@H]1[C@H](O)[C@@H]2C[C@@H]2[C@H]1n1cnc2c(NCc3cccc(Cl)c3)nc(Cl)nc21 [Compound 2a]
% efficacy, A3 (stimulation of [35S]GTPγS binding) [3]: 2.9 ± 3.7 ^f %

Compound: CNC(=O)[C@@]12C[C@@H]1[C@@H](n1cnc3c(NCc4cccc(Cl)c4)nc(C#CCCCC(=O)O)nc31)[C@H](O)[C@@H]2O [Compound 6]
% inhibition of radioligand binding A2A [1]: (43%)

Compound: CNC(=O)[C@]12C[C@@H]1[C@@H](n1cnc3c(NCc4cccc(Cl)c4)nc(C#CCCCC(=O)OC)nc31)[C@H](O)[C@@H]2O [Compound 9]
% inhibition of radioligand binding A2A [1]: (49%)

Compound: CNC(=O)[C@]12C[C@@H]1[C@@H](n1cnc3c(NCc4cccc(Cl)c4)nc(C#CCCCC(=O)NCCN)nc31)[C@H](O)[C@@H]2O [Compound 12]
% inhibition of radioligand binding A2A [1]: (81%)

Compound: CCN1C(=CC=CC=CC2=[N+](CCCCCC(=O)NCCNC(=O)CCC#Cc3nc(NCc4cccc(Cl)c4)c4ncn(C5C(O)C(O)C6(C(=O)NC)CC56)c4n3)c3ccc(S(=O)(=O)O)cc3C2(C)C)C(C)(C)c2cc(S(=O)(=O)[O-])ccc21 (stereo not drawn) [Compound 18, (1′S,2′R,3′S,4′S,5′S)-4′-[6-(3-Chlorobenzylamino)-2-(N-cyaiune(β-aminoethylaminocarbonyl)-1-butynyl)-9-yl]-2′,3′-dihydroxybicyclo[3.1.0]hexane-1′-carboxylic Acid N-Methylamide]
Ki [5]: 9.62 nM and 9.6 nM
inhibition at 10 µM ([6]; read-out: % inhibition of radioligand binding A1): 36%
Ki [7]: 4730 ± 1020 nM
agonist character at hA3AR in the adenylate cyclase (cAMP) assay [4]: full agonist

Compound: O[C@@H]1[C@H](O)[C@@H]2C[C@@H]2[C@H]1n1cnc2c(NCc3cccc(Cl)c3)ncnc21 [Compound 22]
agonist character at hA3AR in the adenylate cyclase (cAMP) assay [4]: partial

Compound: O[C@@H]1[C@H](O)[C@@H]2C[C@@H]2[C@H]1n1cnc2c(NCc3cccc(I)c3)ncnc21 [Compound 23, (1′R,2′R,3′S,4′ S,5′ S)-4′-[6-(3-Iodobenzylamino)purine]-2′,3′-dihydroxybicyclo[3.1.0]hexane]
Ki [8]: 11 ± 2.2 nM
Ki [7]: 2330 ± 680 nM
agonist character at hA3AR in the adenylate cyclase (cAMP) assay [4]: nearly full agonism

Compound: O[C@@H]1[C@H](O)[C@@H]2C[C@@H]2[C@H]1n1cnc2c(NC3CCCC3)nc(Cl)nc21 [Compound 25]
fold reduction of affinity at A1AR on loss of the 5′-N-methyluronamide group ([6]; 25 versus 4): 6 fold
fold reduction of affinity at A3AR on loss of the 5′-N-methyluronamide group ([8]; 25 versus 4): 32 fold
agonist character at hA3AR in the adenylate cyclase (cAMP) assay [4]: nearly full agonism; also recorded: full agonist

Further lines, with some results ahead:

agonist character at hA3AR in the adenylate cyclase (cAMP) assay [4]: partial agonists
Compound: O[C@@H]1[C@H](O)[C@@H]2C[C@@H]2[C@H]1n1cnc2c(NCc3cccc(Br)c3)nc(Cl)nc21 [Compound 2b, (1R,2R,3S,4R,5S)-4-(6-(3-bromobenzylamino)-2-chloro-9H-purin-9-yl)bicyclo-[3.1.0]hexane-2,3-diol, reference compound]

agonist character at hA3AR in the adenylate cyclase (cAMP) assay [4]: partial agonists
Compound: O[C@@H]1[C@H](O)[C@@H]2C[C@@H]2[C@H]1n1cnc2c(NCc3cccc(I)c3)nc(Cl)nc21 [Compound 2c, reference compound]
% efficacy, A3 (stimulation of [35S]GTPγS binding) [3]: 1.0 ± 3.2%

EC50 [4]: 2.5 ± 0.42 nM
Compound: CNC(=O)[C@]12C[C@@H]1[C@@H](n1cnc3c(NCc4cccc(Cl)c4)nc(C#CCCC(=O)NCCNC(=O)CCCC[C@H]4SC[C@H]5NC(=O)N[C@H]54)nc31)[C@H](O)[C@@H]2O [Compound 17a, (1′S,2′R,3′S,4′S,5′S)-4′-[6-(3-Chiorobenzylamino)-2-(N-biotinyl(β-aminoethylaminocarbonyl)-1-butynyl)-9-yl]-2′, 3′-dihydroxybicyclo[3.1.0]hexane-1′-carboxylic Acid N-Methylamide]
